# Positions of bridges follow the written chain, without caps; N, C: chain ends. Non-standard residues stand in square brackets, D forms with d. Residues, ends and D or L forms follow the SMILES beside them. Trp(5-OH) = N[C@@H](Cc1c[nH]c2ccc(O)cc12)C(=O)O; NMePhe(4-F) = CN[C@@H](Cc1ccc(F)cc1)C(=O)O; NMehPhe = CN[C@@H](CCc1ccccc1)C(=O)O; NMeAoc(2) = CCCCCC[C@H](NC)C(=O)O; NMeAhp(2) = CCCCC[C@H](NC)C(=O)O; Aad = N[C@@H](CCCC(=O)O)C(=O)O; Gly(cPr) = N[C@H](C(=O)O)C1CC1; Ahp(2) = CCCCC[C@H](N)C(=O)O; NMeDab = CN[C@@H](CCN)C(=O)O; NMeK = CN[C@@H](CCCCN)C(=O)O; NMeDap = CN[C@@H](CN)C(=O)O; NMeS = CN[C@@H](CO)C(=O)O
# Tests used:
# Assay type in all cases: binding
# human HER2 (23-652) [1] = molecular target: T1, human HER2 (23-652) (Homo sapiens, UniProt P04626); test: Surface plasmon resonance (SPR) for assessment of peptide affinity, human HER2; set-up: towards human HER2 (23-652) and mouse HER2 (23-653); made in house; conditions: SPR, human HER2 extracellular domain, 25° C., 1:1 binding model; read-out: huHER2-SPR-ONC KD
# Outline: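 Binding kinetics fitted from sensorgrams with 280 s peptide association then 3000 s dissociation (30 uL/min), using HER2 (23-652) either directly immobilized (SA/CM5) or anti-Fc-captured; 3 M magnesium chloride used for regeneration.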
# human HER2 (23-652) [2] = molecular target: T1, human HER2 (23-652); test: TR-FRET competition assay for peptide potency, human HER2; set-up: towards human HER2 (23-652) and mouse HER2 (23-653); made in house; host or cells: mammalian cells; conditions: read-out: huHER2 TR-FRET IC50
# mouse HER2 (23-653) [3] = molecular target: T2, mouse HER2 (23-653) (Mus musculus, UniProt P70424); test: TR-FRET competition assay for peptide potency, mouse HER2; set-up: mouse HER2 (23-653) using a Cy5 labeled peptide as a probe; made in house; host or cells: mammalian cells; conditions: TR-FRET competition with Cy5 labeled peptide probe, 0.1 nM mouse HER2, 24 h incubation; read-out: moHER2 TR-FRET IC50
# mouse HER2 (23-653) [4] = molecular target: T2, mouse HER2 (23-653); test: Surface plasmon resonance (SPR) for assessment of peptide affinity, mouse HER2; set-up: mouse HER2 (23-653) using a Cy5 labeled peptide as a probe; made in house; conditions: SPR, mouse HER2 extracellular domain, 25° C., 1:1 binding model; read-out: moHER2-SPR-ONC KD
# Source text: Each protein was immobilized either onto a SA sensorchip (Cytiva, BR-1005-31) or CM5 sensorchip (Cytiva, BR-1005-30) to a density of 800-2000 RU.
SMILES,Kd (human HER2 (23-652) [1]) [µM],IC50 (human HER2 (23-652) [2]) [µM],IC50 (mouse HER2 (23-653) [3]) [µM],Kd (mouse HER2 (23-653) [4]) [µM]
"CC(=O)N[C@H]1CC(=O)NCC[C@@H](C(=O)N(C)[C@@H](Cc2ccc(F)cc2)C(N)=O)N(C)C(=O)[C@H](C2CC2)NC(=O)[C@H](Cc2c[nH]c3ccccc23)NC(=O)[C@H](Cc2c[nH]c3ccc(O)cc23)NC(=O)[C@H](CO)N(C)C(=O)[C@H](CCc2ccccc2)N(C)C(=O)[C@H](CO)NC(=O)[C@H](Cc2ccc(O)cc2)NC1=O [Example A9, (2S,5S,8S,11S,14S,17S,20S,23S,29S)-17-((1H-indol-3-yl)methyl)-29-acetamido-N-((S)-1-amino-3-(4-fluorophenyl)-1-oxopropan-2-yl)-20-cyclopropyl-14-((5-hydroxy-1H-indol-3-yl)methyl)-2-(4-hydroxybenzyl)-5,11-bis(hydroxymethyl)-N,7,10,22-tetramethyl-3,6,9,12,15,18,21,27,30-nonaoxo-8-phenethyl-1,4,7,10,13,16,19,22,26-nonaazacyclotriacontane-23-carboxamide] (Ac-DYS[NMehPhe][NMeS][Trp(5-OH)]W[Gly(cPr)][NMeDab][NMePhe(4-F)]-NH2; lactam 1-9)",0.117,0.075,0.172,0.243
"CC(=O)N[C@H]1CCC(=O)NCC[C@@H](C(=O)N(C)[C@@H](Cc2ccc(F)cc2)C(N)=O)N(C)C(=O)[C@H](C2CC2)NC(=O)[C@H](Cc2c[nH]c3ccccc23)NC(=O)[C@H](Cc2c[nH]c3ccc(O)cc23)NC(=O)[C@H](CO)N(C)C(=O)[C@H](CCc2ccccc2)N(C)C(=O)[C@H](CO)NC(=O)[C@H](Cc2ccc(O)cc2)NC1=O [Example A10, (2S,5S,8S,11S,14S,17S,20S,23S,30S)-17-((1H-indol-3-yl)methyl)-30-acetamido-N-((S)-1-amino-3-(4-fluorophenyl)-1-oxopropan-2-yl)-20-cyclopropyl-14-((5-hydroxy-1H-indol-3-yl)methyl)-2-(4-hydroxybenzyl)-5,11-bis(hydroxymethyl)-N,7,10,22-tetramethyl-3,6,9,12,15,18,21,27,31-nonaoxo-8-phenethyl-1,4,7,10,13,16,19,22,26-nonaazacyclohentriacontane-23-carboxamide]",0.482,0.536,0.684,0.52
"CCCCC[C@@H]1NC(=O)[C@H](CCCCNC(C)=O)N(C)C(=O)[C@H](CCc2ccccc2)N(C)C(=O)[C@H](CO)NC(=O)[C@H](Cc2ccc(O)cc2)NC(=O)[C@@H](NC(C)=O)CCCC(=O)NC[C@@H](C(=O)N(C)[C@@H](Cc2ccc(F)cc2)C(N)=O)N(C)C(=O)[C@H](C2CC2)NC(=O)[C@H](Cc2c[nH]c3ccccc23)NC1=O [Example A11, (3S,6S,9S,12S,15S,18S,21S,24S,27S)-9-((1H-indol-3-yl)methyl)-27-acetamido-15-(4-acetamidobutyl)-N-((S)-1-amino-3-(4-fluorophenyl)-1-oxopropan-2-yl)-6-cyclopropyl-24-(4-hydroxybenzyl)-21-(hydroxymethyl)-N,4,16,19-tetramethyl-5,8,11,14,17,20,23,26,31-nonaoxo-12-pentyl-18-phenethyl-1,4,7,10,13,16,19,22,25-nonaazacyclohentriacontane-3-carboxamide] (Ac-[Aad]YS[NMehPhe][NMeK](Ac)[Ahp(2)]W[Gly(cPr)][NMeDap][NMePhe(4-F)]-NH2; lactam 1-9)",0.445,0.966,> 1,0.786
"CC(=O)N[C@H]1CCC(=O)NC[C@@H](C(=O)N(C)[C@@H](Cc2ccc(F)cc2)C(N)=O)NC(=O)[C@H](C2CC2)NC(=O)[C@H](Cc2c[nH]c3ccccc23)NC(=O)[C@H](Cc2c[nH]c3ccc(O)cc23)NC(=O)[C@H](CO)N(C)C(=O)[C@H](CCc2ccccc2)N(C)C(=O)[C@H](CO)NC(=O)[C@H](Cc2ccc(O)cc2)NC1=O [Example A12, (3S,6S,9S,12S,15S,18S,21S,24S,27S)-9-((1H-indol-3-yl)methyl)-27-acetamido-N-((S)-1-amino-3-(4-fluorophenyl)-1-oxopropan-2-yl)-6-cyclopropyl-12-((5-hydroxy-1H-indol-3-yl)methyl)-24-(4-hydroxybenzyl)-15,21-bis(hydroxymethyl)-N,16,19-trimethyl-5,8,11,14,17,20,23,26,30-nonaoxo-18-phenethyl-1,4,7,10,13,16,19,22,25-nonaazacyclotriacontane-3-carboxamide]",1.34,> 1,> 1,0.864
"CCCCCC[C@@H](C(N)=O)N(C)C(=O)[C@@H]1CNC(=O)CCC[C@H](NC(C)=O)C(=O)N[C@@H](Cc2ccc(O)cc2)C(=O)N[C@@H](CO)C(=O)N(C)[C@@H](CCc2ccccc2)C(=O)N(C)[C@@H](CCCCNC(C)=O)C(=O)N[C@@H](Cc2c[nH]c3ccc(O)cc23)C(=O)N[C@@H](Cc2c[nH]c3ccccc23)C(=O)N[C@@H](C2CC2)C(=O)N1C [Example A13, (3S,6S,9S,12S,15S,18S,21S,24S,27S)-9-((1H-indol-3-yl)methyl)-27-acetamido-15-(4-acetamidobutyl)-N-((S)-1-amino-1-oxooctan-2-yl)-6-cyclopropyl-12-((5-hydroxy-1H-indol-3-yl)methyl)-24-(4-hydroxybenzyl)-21-(hydroxymethyl)-N,4,16,19-tetramethyl-5,8,11,14,17,20,23,26,31-nonaoxo-18-phenethyl-1,4,7,10,13,16,19,22,25-nonaazacyclohentriacontane-3-carboxamide] (Ac-[Aad]YS[NMehPhe][NMeK](Ac)[Trp(5-OH)]W[Gly(cPr)][NMeDap][NMeAoc(2)]-NH2; lactam 1-9)",0.04,0.046,0.107,0.044
"CCCCC[C@@H](C(N)=O)N(C)C(=O)[C@@H]1CNC(=O)CCC[C@H](NC(C)=O)C(=O)N[C@@H](Cc2ccc(O)cc2)C(=O)N[C@@H](CO)C(=O)N(C)[C@@H](CCc2ccccc2)C(=O)N(C)[C@@H](CCCCNC(C)=O)C(=O)N[C@@H](Cc2c[nH]c3ccc(O)cc23)C(=O)N[C@@H](Cc2c[nH]c3ccccc23)C(=O)N[C@@H](C2CC2)C(=O)N1C [Example A15, (3S,6S,9S,12S,15S,18S,21S,24S,27S)-9-((1H-indol-3-yl)methyl)-27-acetamido-15-(4-acetamidobutyl)-N-((S)-1-amino-1-oxoheptan-2-yl)-6-cyclopropyl-12-((5-hydroxy-1H-indol-3-yl)methyl)-24-(4-hydroxybenzyl)-21-(hydroxymethyl)-N,4,16,19-tetramethyl-5,8,11,14,17,20,23,26,31-nonaoxo-18-phenethyl-1,4,7,10,13,16,19,22,25-nonaazacyclohentriacontane-3-carboxamide] (Ac-[Aad]YS[NMehPhe][NMeK](Ac)[Trp(5-OH)]W[Gly(cPr)][NMeDap][NMeAhp(2)]-NH2; lactam 1-9)",0.024,0.027,0.055,0.024
"CC(=O)N[C@H]1CCC(=O)NC[C@@H](C(=O)N(C)[C@@H](Cc2ccc(F)cc2)C(N)=O)N(C)C(=O)[C@H](C2CC2)NC(=O)[C@H](Cc2c[nH]c3ccccc23)NC(=O)[C@H](Cc2cnn3ccccc23)NC(=O)[C@H](CO)N(C)C(=O)[C@H](CCc2ccccc2)N(C)C(=O)[C@H](CO)NC(=O)[C@H](Cc2ccc(O)cc2)NC1=O [Example A16, (3S,6S,9S,12S,15S,18S,21S,24S,27S)-9-((1H-indol-3-yl)methyl)-27-acetamido-N-((S)-1-amino-3-(4-fluorophenyl)-1-oxopropan-2-yl)-6-cyclopropyl-24-(4-hydroxybenzyl)-15,21-bis(hydroxymethyl)-N,4,16,19-tetramethyl-5,8,11,14,17,20,23,26,30-nonaoxo-18-phenethyl-12-(pyrazolo[1,5-a]pyridin-3-ylmethyl)-1,4,7,10,13,16,19,22,25-nonaazacyclotriacontane-3-carboxamide]",> 6,> 1,> 1,> 6
"CCCCC[C@@H]1NC(=O)[C@H](Cc2c[nH]c3ccc(O)cc23)NC(=O)[C@H](CCCCNC(C)=O)N(C)C(=O)[C@H](CCc2ccccc2)N(C)C(=O)[C@H](CO)NC(=O)[C@H](Cc2ccc(O)cc2)NC(=O)[C@@H](NC(C)=O)CCCC(=O)NC[C@@H](C(=O)N(C)[C@@H](Cc2ccc(F)cc2)C(N)=O)N(C)C(=O)[C@H](C2CC2)NC1=O [Example A17, (3S,6S,9S,12S,15S,18S,21S,24S,27S)-27-acetamido-15-(4-acetamidobutyl)-N-((S)-1-amino-3-(4-fluorophenyl)-1-oxopropan-2-yl)-6-cyclopropyl-12-((5-hydroxy-1H-indol-3-yl)methyl)-24-(4-hydroxybenzyl)-21-(hydroxymethyl)-N,4,16,19-tetramethyl-5,8,11,14,17,20,23,26,31-nonaoxo-9-pentyl-18-phenethyl-1,4,7,10,13,16,19,22,25-nonaazacyclohentriacontane-3-carboxamide] (Ac-[Aad]YS[NMehPhe][NMeK](Ac)[Trp(5-OH)][Ahp(2)][Gly(cPr)][NMeDap][NMePhe(4-F)]-NH2; lactam 1-9)",> 6,> 1,> 1,> 6

# Source: patent US20250332300A1 (priority 2024, published 2025)
